In the NIST ThermoML archive (doi:10.1021/je200659c):

Columns and labels:
[1] = xn = mol fraction of the nth substance listed; details: Maximal bubble pressure
[2] = Maximal bubble pressure

O [water] + CCCCCCn1cc[n+](C)c1.[Cl-]
Details	surface tension liquid-gas [mN/m]
[1], 297.7 K, x2 = 0	70.9

CCCCn1cc[n+](C)c1.CS(=O)(=O)[O-] [1-butyl-3-methylimidazolium methanesulfonate] + O
[1]
Details	surface tension liquid-gas [mN/m]
297.5 K, x1 = 0.004	65.1
297.7 K, x1 = 0.014	62.9
297.8 K, x1 = 0.026	59.6
297.8 K, x1 = 0.064	53.6
298 K, x1 = 0.115	50.3
298 K, x1 = 0.256	45.9
298.2 K, x1 = 0.173	48.2
298.2 K, x1 = 0.24	46.7
298.2 K, x1 = 0.291	45.1
304.7 K, x1 = 0.005	66.3
304.8 K, x1 = 0.177	47.9
304.9 K, x1 = 0.011	63.5
305.1 K, x1 = 0.109	50.8
305.1 K, x1 = 0.141	49.5
305.1 K, x1 = 0.16	48.5
305.2 K, x1 = 0.017	61.3
305.2 K, x1 = 0.08	52.4
305.3 K, x1 = 0.052	55.3
305.4 K, x1 = 0.027	59.2
312.2 K, x1 = 0.092	51.4
312.2 K, x1 = 0.184	47.8
312.3 K, x1 = 0.145	49.4
312.4 K, x1 = 0.069	53.2
312.6 K, x1 = 0.005	65.3
312.6 K, x1 = 0.019	60.3
312.8 K, x1 = 0.01	62.9
312.8 K, x1 = 0.041	56.3
318.1 K, x1 = 0.339	44.2
318.3 K, x1 = 0.259	45.5
318.7 K, x1 = 0.165	47.7
320.1 K, x1 = 0.034	56.1
320.1 K, x1 = 0.083	51.4
320.8 K, x1 = 0.023	58.2
321.3 K, x1 = 0.013	61
321.8 K, x1 = 0.004	64.8

O [water] + COS(=O)(=O)[O-].Cn1cc[n+](C)c1
Details	surface tension liquid-gas [mN/m]
[1], 296.8 K, x2 = 0	71.1

COS(=O)(=O)[O-].Cn1cc[n+](C)c1 [1,3-dimethylimidazolium methylsulfate] + O
[1]
Details	surface tension liquid-gas [mN/m]
297 K, x1 = 0.008	70.6
297.1 K, x1 = 0.025	69.5
297.3 K, x1 = 0.055	68.2
297.6 K, x1 = 0.093	67.3
297.6 K, x1 = 0.141	66.4
297.7 K, x1 = 0.183	65.7
298 K, x1 = 0.222	65.3
298.1 K, x1 = 0.261	64.7
298.1 K, x1 = 0.292	64.7

CCCCCCn1cc[n+](C)c1.[Cl-] [1-hexyl-3-methylimidazolium chloride] + O
[1]
Details	surface tension liquid-gas [mN/m]
297.2 K, x1 = 0.003	61.8
297.4 K, x1 = 0.009	55.2
297.4 K, x1 = 0.02	50.5
297.6 K, x1 = 0.045	47.6
297.7 K, x1 = 0.013	52.8
297.8 K, x1 = 0.073	46
297.9 K, x1 = 0.121	43.8
298 K, x1 = 0.092	45
298.2 K, x1 = 0.143	43.2

O [water] + CCCCn1cc[n+](C)c1.CS(=O)(=O)[O-]
[1], x2 = 0
Details	surface tension liquid-gas [mN/m]
297 K	71.9
304.3 K	70.7
312.4 K	69.4
321.3 K	68.1

O [water]
[2]
Details	surface tension liquid-gas [mN/m]
296.8 K	71.1
297 K	71.9
297.7 K	70.9
300 K	71.6
301.2 K	71.4
304.3 K	70.7
312.4 K	69.4
321.3 K	68.1

O [water] + CCn1cc[n+](C)c1.CS(=O)(=O)[O-]
[1], x2 = 0
Details	surface tension liquid-gas [mN/m]
300 K	71.6
301.2 K	71.4

CCn1cc[n+](C)c1.CS(=O)(=O)[O-] [1-ethyl-3-methylimidazolium methanesulfonate] + O
[1]
Details	surface tension liquid-gas [mN/m]
300 K, x1 = 0.002	72.1
300 K, x1 = 0.03	69.8
300.1 K, x1 = 0.025	70.4
300.2 K, x1 = 0.004	71.6
300.2 K, x1 = 0.006	71.4
300.3 K, x1 = 0.01	71.1
300.4 K, x1 = 0.015	70.7
300.4 K, x1 = 0.019	70.5
301 K, x1 = 0.065	67.9
301.2 K, x1 = 0.274	60.7
301.3 K, x1 = 0.002	71.4
301.3 K, x1 = 0.004	70.9
301.3 K, x1 = 0.007	70.4
301.3 K, x1 = 0.013	69.8
301.3 K, x1 = 0.019	69.2
301.3 K, x1 = 0.026	68.8
301.3 K, x1 = 0.032	68.4
301.3 K, x1 = 0.376	59.2
301.4 K, x1 = 0.01	70.1
301.7 K, x1 = 0.112	65.6
301.7 K, x1 = 0.485	58.1
302.4 K, x1 = 0.08	66
302.7 K, x1 = 0.133	63.5
302.7 K, x1 = 0.181	62.9
302.9 K, x1 = 0.199	61.2
303.2 K, x1 = 0.474	57.3
303.3 K, x1 = 0.388	57.7
303.8 K, x1 = 0.284	58.7
